From patent publication US20060073156A1, “Fosfomycin and n-acetylcysteine for the treatment of biofilms caused by escheric ia coli and other pathogens of the urinary tract” (ZAMBON GROUP S.P.A., priority 2002, published 2006)
Values joined by “and” are separate entries in the source; they are usually repeats but may differ in a detail not shown here. Identical values can stand only once. Like-named read-outs stand apart in the source and are kept apart here.

How the values were obtained:
[1] = test system: Escherichia coli cells of the biofilm; assay: Bacterial viability of biofilm cells: sonication, seeding, count of viable units (CFU/ml); type: cell-based; settings: for inhibition at 2000 µg/mL: Escherichia coli, fosfomycin 2000 mg/l alone, read-out: reductions in viable units
Experimental: (§1) The effects of NAC and fosfomycin on the biofilm produced by Escherichia coli have been evaluated on four strains designated 169, 255, 1263 and 1293, from the Microbiological Collection of the Genua University.
At the same time the biofilms treated in this way were submitted to sonication in order to disperse the cells that were still adhering, which were seeded on rich medium after suitable dilution for calculating the viable units that survived the various treatments.

[2] = test system: biofilm produced by Escherichia coli; assay: Formation of biofilm, Crystal Violet staining in polystyrene microplates, measured at 492 nm; type: cell-based; settings: various concentrations of NAC added to the cultures; three strains out of four
Experimental: as §1
(§2) Formation of the biofilms was measured spectrophotometrically in U-bottom polystyrene microplates (Corning Incorporated, NY).
In more detail, the effect of NAC on the formation of biofilms was evaluated as follows: overnight cultures in Tryptic Soy Broth (TSB) with addition of glucose (0.25%). (TSBG) were diluted 1:100 in TSBG. These suspensions (100 μl each) were added to suitable dilutions of NAC at concentrations ranging from 8 mg/ml to 0.007 mg/ml respectively. After incubation at 37° C. for 24 hours, the microplates were washed three times with 10 mM phosphate buffer pH 7.4 (PBS), treated with Bouin fixative and then stained with Crystal Violet (0.01%).
(§3) The biofilm adhering to the walls of the microplates was collected via washing with PBS, suspended in 10% sarbosyl and measured spectrophotometrically at 492 nm.

Escherichia coli = assay: Bacterial growth of cultures with NAC added; type: cell-based; settings: various concentrations of NAC added to the cultures; all E. coli strains tested
[3] = test system: biofilm produced by Escherichia coli; assay: Disruption of biofilms: residual quantity of biofilm after treatment of initial (5 hours) and fully consolidated (48 hours) biofilms; type: cell-based; settings: NAC alone; for reduction of mature biofilms: mature (48 hours) biofilms
Experimental: as §1, §2, §3
The same method was used for calculating the residual quantity of biofilm after treatment with NAC and fosfomycin, alone or associated, on Escherichia coli. For this purpose, biofilms with two different degrees of maturity: initial (5 hours) and fully consolidated (48 hours) were exposed to appropriate concentrations of NAC (from 8 mg/ml to 0.007 mg/ml) with addition of fosfomycin at the concentrations attainable in vivo in the urine.

[4] = test system: biofilms of P. aeruginosa; settings: Antimicrob. Agents Chemother., 35, 1258, (1991); cited from earlier work
S. epidermidis = settings: J. Ant. Chem., 39, 643, (1997); cited from earlier work

| Structure (SMILES) | inhibition at 2000 µg/mL ([1]; fully consolidated biofilms) [%] | inhibition at 2000 µg/mL ([1]; initial biofilms) [%] | reductions in CFU/ml ([1]; fosfomycin 128 mg/l alone) | reductions in biofilm (formation) [2] | changes in bacterial growth (Escherichia coli) | reduction of initial biofilms ([3]; initial (5 hours) biofilms, strains not named) | reduction of mature biofilms ([3]; Escherichia coli 169) [%] | reduction of mature biofilms ([3]; three strains out of four) | ability to disrupt biofilms [4] | inhibition of biofilm formation (S. epidermidis) |
| --- | --- | --- | --- | --- | --- | --- | --- | --- | --- | --- |
| C[C@@H]1O[C@@H]1P(=O)(O)O [fosfomycin, Fosfomycin] | 36 to 85.7 | 98 to 99.5 | less than 1 logarithm |  |  |  |  |  |  |  |
| CC(=O)N[C@@H](CS)C(=O)O [NAC, N-acetylcysteine] |  |  |  | greater than 50% | did not cause appreciable changes | 51.7% and 64.0% and 58.4% | 25.2 | 64.3% and 60.2% and 67.7% | ability to disrupt biofilms | inhibit their formation |
